Assay results published in patent US8163737B2 (Vertex Pharmaceuticals Incorporated, priority 2006, dated 2012).

Biological target: endogenous CGRP receptor (Homo sapiens, UniProt O60894+Q16602)
Test: CGRP functional antagonism using SK-N-MC-BLA (4C10), β-lactamase transcriptional reporter assay
Assay type: cell-based
Conditions: SK-N-MC (4C10) cells, inhibition of β-lactamase expression in the presence of 200 pM CGRP
From the text: Measuring CGRP Functional Antagonism Using SK-N-MC-BLA (4C10):
CGRP functional antagonism was characterized in a cell based transcriptional assay using a recombinant SK-N-MC line. To introduce the transcriptional reporter system, SK-N-MC cell line was transduced with a retroviral vector containing β-lactamase gene downstream of cAMP responsive promoter. The expression of β-lactamase is triggered by cAMP increase that is a downstream event of activation of endogenous CGRP receptor. Single clones were separated using Fluorescent Activated Cell Sorting (FACS) based on CGRP induced β-lactamase activity. β-lactamase activity was measured using a fluorescence energy transfer (FRET) dye, CCF4. […] To evaluate functional antagonist activity of compounds in SK-N-MC (4C10) line, compounds were evaluated for their inhibition of β-lactamase expression in the presence of CGRP.
SK-N-MC (4C10) was cultured in Minimal Essential Media (MEM) (Invitrogen) supplemented with 1 mM non-essential amino acids solution (Invitrogen), 100 units/ml Penicillin-Streptomycin (Invitrogen), 1 mM sodium pyruvate (Invitrogen) and 10% fetal bovine serum. For the β-lactamase assay, low serum, 1% FBS in MEM was used. 30,000 cells were plated into each wells of poly-D-lysine coated 384-well plate (Becton Dickinson) a day prior to the assay. SK-N-MC (4C10) was preincubated with compounds for 30 min before the addition of 200 pM CGRP. The assay was incubated for 3 hours at 37° C. to allow β-lactamase expression. CCF4 dye was added and incubated for 2 hours at room temperature. […] Curve fitting and IC50 calculation were carried about using MOD3.

Sequence of endogenous CGRP receptor (Q16602 23-461): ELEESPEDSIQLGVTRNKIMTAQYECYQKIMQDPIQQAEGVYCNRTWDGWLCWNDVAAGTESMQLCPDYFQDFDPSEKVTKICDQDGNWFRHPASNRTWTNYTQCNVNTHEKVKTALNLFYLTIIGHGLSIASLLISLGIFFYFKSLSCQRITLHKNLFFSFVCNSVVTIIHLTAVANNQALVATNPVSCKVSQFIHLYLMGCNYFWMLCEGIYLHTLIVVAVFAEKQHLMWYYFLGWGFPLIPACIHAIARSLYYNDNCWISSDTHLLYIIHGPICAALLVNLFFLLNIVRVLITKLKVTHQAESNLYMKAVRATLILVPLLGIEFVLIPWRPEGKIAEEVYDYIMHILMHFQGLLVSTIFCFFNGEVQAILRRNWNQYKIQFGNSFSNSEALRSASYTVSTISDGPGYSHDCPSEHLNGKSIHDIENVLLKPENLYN
Sequence of endogenous CGRP receptor (O60894 27-148): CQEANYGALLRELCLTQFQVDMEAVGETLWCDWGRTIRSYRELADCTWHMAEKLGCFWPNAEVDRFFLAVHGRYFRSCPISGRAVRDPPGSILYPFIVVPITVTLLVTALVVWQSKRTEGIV

CC(C)(C)CCN1C(=O)C(CC(=O)N2CCC(N3Cc4ccccc4NC3=O)CC2)SC1c1ccccc1F (stereo not drawn) [Compound 252]
IC50: < 1000 nM

CC(C)CCN1C(=O)C(CC(=O)N2CCC(N3Cc4ccccc4NC3=O)CC2)SC12CCC(C(F)(F)F)CC2 (stereo not drawn) [Compound 253]
IC50: 1000 to 5000 nM

C=CCN1C(=O)C(CC(=O)N2CCC(N3Cc4ccccc4NC3=O)CC2)SC1c1ccccc1 (stereo not drawn) [Compound 254]
IC50: 1000 to 5000 nM

CN1CCN(c2ccccc2C2SC(CC(=O)N3CCC(n4cc(-c5ccccc5)[nH]c4=O)CC3)C(=O)N2CCC(C)(C)C)CC1 (stereo not drawn) [Compound 257]
IC50: < 1000 nM

CC(C)CCN1C(=O)C(CC(=O)N2CCC(N3CCc4ccccc4NC3=O)CC2)SC1C1CCOCC1 (stereo not drawn) [Compound 258]
IC50: 1000 to 5000 nM

CC(C)CCN1C(=O)C(CC(=O)N2CCC3(CC2)CNC(=O)O3)SC1c1ccccc1 (stereo not drawn) [Compound 261]
IC50: > 5000 nM

CC(C)CCN1C(=O)C(CC(=O)N2CCC(N3CCc4ccccc4NC3=O)CC2)SC1CCc1ccccc1 (stereo not drawn) [Compound 262]
IC50: 1000 to 5000 nM

Cc1c(F)cccc1C1SC(CC(=O)N2CCC(N3Cc4ccccc4NC3=O)CC2)C(=O)N1CCC(C)C (stereo not drawn) [Compound 267]
IC50: < 1000 nM

CCCN1C(=O)C(CC(=O)N2CCC(N3Cc4ccccc4NC3=O)CC2)SC1c1ccccc1 (stereo not drawn) [Compound 269]
IC50: 1000 to 5000 nM

CC(C)CCN1C(=O)C(CC(=O)N2CCC(N3C(=O)Cc4ccccc43)CC2)SC1c1ccccc1 (stereo not drawn) [Compound 270]
IC50: > 5000 nM

COc1ccc(C2SC(CC(=O)N3CCC(N4Cc5ccccc5NC4=O)CC3)C(=O)N2CCC(C)C)cc1 (stereo not drawn) [Compound 272]
IC50: 1000 to 5000 nM

CN1C(=O)C(CC(=O)N2CCC(N3Cc4ccccc4NC3=O)CC2)SC1c1ccccc1 (stereo not drawn) [Compound 273, 3,4-Dihydro-3-(1-(2-(3-methyl-4-oxo-2-phenylthiazolidin-5-yl)acetyl)piperidin-4-yl)quinazolin-2(1H)-one]
IC50: 1000 to 5000 nM

CN1CCN(c2ccccc2[C@@H]2SC(CC(=O)N3CCC(n4c(=O)[nH]c5ncccc54)CC3)C(=O)N2CCC(C)(C)C)CC1 (stereo partly drawn) [Compound 274]
IC50: < 1000 nM

CC(C)CCN1C(=O)C(CC(=O)N2CCC(N3Cc4ccccc4NC3=O)CC2)SC12CCC2 (stereo not drawn) [Compound 275]
IC50: > 5000 nM

CC(C)CCN1C(=O)C(CC(=O)N2CCC(N3Cc4ccccc4NC3=O)CC2)SC1CC(C)(C)C (stereo not drawn) [Compound 276]
IC50: 1000 to 5000 nM

CC(C)(C)CCN1C(=O)C(CC(=O)N2CCC(N3CCc4ccccc4NC3=O)CC2)SC1c1cccc2cc[nH]c12 (stereo not drawn) [Compound 277]
IC50: < 1000 nM

O=C(CC1SC(c2ccccc2)N(CCC(F)(F)F)C1=O)N1CCC(N2CCc3ccccc3NC2=O)CC1 (stereo not drawn) [Compound 280]
IC50: < 1000 nM

COc1ccc(F)cc1C1CCN(C(=O)CC2SC(c3ccccc3)N(CCC(C)C)C2=O)CC1 (stereo not drawn) [Compound 281]
IC50: > 5000 nM

CCN1C(=O)C(CC(=O)N2CCC(N3CCc4ccccc4NC3=O)CC2)SC1c1ccccc1 (stereo not drawn) [Compound 284]
IC50: 1000 to 5000 nM

CC(C)CCN1C(=O)C(CC(=O)N2CCC(n3c(=O)[nH]c4ccccc43)CC2)SC1c1ccccc1-n1cccn1 (stereo not drawn) [Compound 291]
IC50: < 1000 nM

CC(C)CCN1C(=O)C(CC(=O)N2CCC(n3c(=O)[nH]c4ccccc43)CC2)SC1c1ccccc1N1CCCCC1 (stereo not drawn) [Compound 292]
IC50: 1000 to 5000 nM

CC(C)CCN1C(=O)C(CC(=O)N2CCC(n3c(=O)[nH]c4ccccc43)CC2)SC1c1ccccc1N(C)C (stereo not drawn) [Compound 293]
IC50: < 1000 nM

CC(C)CCN1C(=O)C(CC(=O)N2CCC(n3c(=O)[nH]c4ccccc43)CC2)SC1c1ccccc1N1CCOCC1 (stereo not drawn) [Compound 294]
IC50: < 1000 nM

CC(C)(C)CCN1C(=O)C(CC(=O)N2CCC(n3c(=O)[nH]c4ccccc43)CC2)SC1c1ccccc1N1CCCCC1 (stereo not drawn) [Compound 298]
IC50: < 1000 nM

CC(C)(C)CCN1C(=O)C(CC(=O)N2CCC(n3c(=O)[nH]c4ccccc43)CC2)SC1c1ccccc1N1CCOCC1 (stereo not drawn) [Compound 300]
IC50: < 1000 nM

CC(C)(C)CCN1C(=O)C(CC(=O)N2CCC(N3Cc4ccccc4NC3=O)CC2)SC1c1c[nH]cn1 (stereo not drawn) [Compound 305]
IC50: 1000 to 5000 nM

CC(C)(C)CCN1C(=O)C(CC(=O)N2CCC(N3CCc4ccccc4NC3=O)CC2)SC12CCCc1ccccc12 (stereo not drawn) [Compound 308]
IC50: < 1000 nM

CC(C)(C)CCN1C(=O)C(CC(=O)N2CCC(N3Cc4ccccc4NC3=O)CC2)SC12c1ccccc1-c1ccccc12 (stereo not drawn) [Compound 309]
IC50: 1000 to 5000 nM

CC(C)(C)CCN1C(=O)C(CC(=O)N2CCC(N3CCc4ccccc4NC3=O)CC2)SC12c1ccccc1-c1ccccc12 (stereo not drawn) [Compound 310]
IC50: < 1000 nM

CC(C)(C)CCN1C(=O)C(CC(=O)N2CCC(n3c(=O)[nH]c4ccccc43)CC2)SC12c1ccccc1-c1ccccc12 (stereo not drawn) [Compound 311]
IC50: 1000 to 5000 nM

CC(C)(C)CCN1C(=O)C(CC(=O)N2CCC(N3Cc4ccccc4NC3=O)CC2)SC1(C)c1ccccc1 (stereo not drawn) [Compound 312]
IC50: < 1000 nM

CC(C)(C)CCN1C(=O)C(CC(=O)N2CCC(N3CCc4ccccc4NC3=O)CC2)SC1c1c[nH]cn1 (stereo not drawn) [Compound 313]
IC50: < 1000 nM

CC(C)(C)CCN1C(=O)C(CC(=O)N2CCC(N3CCc4ccccc4NC3=O)CC2)SC1c1ncc[nH]1 (stereo not drawn) [Compound 314]
IC50: > 5000 nM

CC(C)(C)CCN1C(=O)C(CC(=O)N2CCC(N3CCc4ccccc4NC3=O)CC2)SC12CCc1ccccc12 (stereo not drawn) [Compound 318]
IC50: < 1000 nM

CN1CCN(c2ccccc2C2SC(CC(=O)N3CCC(N4Cc5cccnc5NC4=O)CC3)C(=O)N2CCC(C)(C)C)CC1 (stereo not drawn) [Compound 320]
IC50: < 1000 nM

CN1CCN(c2c(F)cccc2C2SC(CC(=O)N3CCC(N4Cc5ccccc5NC4=O)CC3)C(=O)N2CCC(C)(C)C)CC1 (stereo not drawn) [Compound 323]
IC50: < 1000 nM

CN1CCN(c2c(F)cccc2C2SC(CC(=O)N3CCC(n4cc(-c5ccccc5)[nH]c4=O)CC3)C(=O)N2CCC(C)(C)C)CC1 (stereo not drawn) [Compound 325]
IC50: < 1000 nM

CN1CCN(c2ccccc2C2SC(CC(=O)N3CCC4(CC3)CC(=O)c3ccccc3O4)C(=O)N2CCC(C)(C)C)CC1 (stereo not drawn) [Compound 332]
IC50: > 5000 nM

CN1CCN(c2ccccc2[C@@H]2S[C@](C)(CC(=O)N3CCC(N4Cc5ccccc5NC4=O)CC3)C(=O)N2CCC(C)(C)C)CC1 [Compound 333]
IC50: 1000 to 5000 nM

CN1CCN(c2ccccc2[C@H]2S[C@](C)(CC(=O)N3CCC(N4Cc5ccccc5NC4=O)CC3)C(=O)N2CCC(C)(C)C)CC1 [Compound 334]
IC50: < 1000 nM

CN1CCN(c2c(F)cccc2C2SC(CC(=O)N3CCC(n4c(=O)[nH]c5ccccc54)CC3)C(=O)N2CCC(C)(C)C)CC1 (stereo not drawn) [Compound 338]
IC50: < 1000 nM

CC(C)N1CCN(c2c(F)cccc2C2SC(CC(=O)N3CCC(n4cc(-c5ccccc5)[nH]c4=O)CC3)C(=O)N2CCC(C)(C)C)CC1 (stereo not drawn) [Compound 342]
IC50: 1000 to 5000 nM

CCN1CCN(c2c(F)cccc2C2SC(CC(=O)N3CCC(N4Cc5ccccc5NC4=O)CC3)C(=O)N2CCC(C)(C)C)CC1 (stereo not drawn) [Compound 344]
IC50: < 1000 nM

CCN1CCN(c2c(F)cccc2C2SC(CC(=O)N3CCC(n4cc(-c5ccccc5)[nH]c4=O)CC3)C(=O)N2CCC(C)(C)C)CC1 (stereo not drawn) [Compound 346]
IC50: < 1000 nM

CN1CCN(c2ccc(F)cc2C2SC(CC(=O)N3CCC(N4CCc5ccccc5NC4=O)CC3)C(=O)N2CCC(C)(C)C)CC1 (stereo not drawn) [Compound 352]
IC50: < 1000 nM

CN1CCN(c2c(Cl)cccc2C2SC(CC(=O)N3CCC(N4CCc5ccccc5NC4=O)CC3)C(=O)N2CCC(C)(C)C)CC1 (stereo not drawn) [Compound 356]
IC50: < 1000 nM

CN1CCN(c2c(Cl)cccc2C2SC(CC(=O)N3CCC(n4cc(-c5ccccc5)[nH]c4=O)CC3)C(=O)N2CCC(C)(C)C)CC1 (stereo not drawn) [Compound 358]
IC50: > 5000 nM

CN1CCN(c2cc(F)ccc2C2SC(CC(=O)N3CCC(N4Cc5ccccc5NC4=O)CC3)C(=O)N2CCC(C)(C)C)CC1 (stereo not drawn) [Compound 360]
IC50: < 1000 nM

CN1CCN(c2cc(F)ccc2C2SC(CC(=O)N3CCC(N4CCc5ccccc5NC4=O)CC3)C(=O)N2CCC(C)(C)C)CC1 (stereo not drawn) [Compound 361]
IC50: 1000 to 5000 nM

CN1CCN(c2cc(F)ccc2C2SC(CC(=O)N3CCC(n4c(=O)[nH]c5ncccc54)CC3)C(=O)N2CCC(C)(C)C)CC1 (stereo not drawn) [Compound 362]
IC50: 1000 to 5000 nM

CCCCN1CCN(c2ccccc2C2SC(CC(=O)N3CCC(N4Cc5ccccc5NC4=O)CC3)C(=O)N2CCC(C)(C)C)CC1 (stereo not drawn) [Compound 364]
IC50: > 5000 nM

CCCCN1CCN(c2ccccc2C2SC(CC(=O)N3CCC(n4c(=O)[nH]c5ncccc54)CC3)C(=O)N2CCC(C)(C)C)CC1 (stereo not drawn) [Compound 366]
IC50: < 1000 nM

CN1CCCN(c2ccccc2C2SC(CC(=O)N3CCC(N4Cc5ccccc5NC4=O)CC3)C(=O)N2CCC(C)(C)C)CC1 (stereo not drawn) [Compound 369]
IC50: 1000 to 5000 nM

CN1CCCN(c2ccccc2C2SC(CC(=O)N3CCC(N4CCc5ccccc5NC4=O)CC3)C(=O)N2CCC(C)(C)C)CC1 (stereo not drawn) [Compound 370]
IC50: < 1000 nM

CC(C)(C)CCN1C(=O)C(CC(=O)N2CCC(N3CCc4ccccc4NC3=O)CC2)SC1c1ccccc1N1CCN(CCO)CC1 (stereo not drawn) [Compound 372]
IC50: > 5000 nM

CN1CCN(c2ccccc2[C@H]2S[C@](C)(CC(=O)N3CCC(N4CCc5ccccc5NC4=O)CC3)C(=O)N2CCC(C)(C)C)CC1 [Compound 377]
IC50: 1000 to 5000 nM

CN1CCN(c2ccccc2[C@@H]2S[C@](C)(CC(=O)N3CCC(n4c(=O)[nH]c5ncccc54)CC3)C(=O)N2CCC(C)(C)C)CC1 [Compound 378]
IC50: < 1000 nM
